The molecules below were run against T1, Axl (Homo sapiens, UniProt P30530) (assay: Cellular Axl inhibition ELISA (p-Axl, Gas6-induced) using H1299 cells). Conditions: read-out: Cellular Axl activity by H1299 Elisa (IC50).
T1 sequence (P30530 26-894): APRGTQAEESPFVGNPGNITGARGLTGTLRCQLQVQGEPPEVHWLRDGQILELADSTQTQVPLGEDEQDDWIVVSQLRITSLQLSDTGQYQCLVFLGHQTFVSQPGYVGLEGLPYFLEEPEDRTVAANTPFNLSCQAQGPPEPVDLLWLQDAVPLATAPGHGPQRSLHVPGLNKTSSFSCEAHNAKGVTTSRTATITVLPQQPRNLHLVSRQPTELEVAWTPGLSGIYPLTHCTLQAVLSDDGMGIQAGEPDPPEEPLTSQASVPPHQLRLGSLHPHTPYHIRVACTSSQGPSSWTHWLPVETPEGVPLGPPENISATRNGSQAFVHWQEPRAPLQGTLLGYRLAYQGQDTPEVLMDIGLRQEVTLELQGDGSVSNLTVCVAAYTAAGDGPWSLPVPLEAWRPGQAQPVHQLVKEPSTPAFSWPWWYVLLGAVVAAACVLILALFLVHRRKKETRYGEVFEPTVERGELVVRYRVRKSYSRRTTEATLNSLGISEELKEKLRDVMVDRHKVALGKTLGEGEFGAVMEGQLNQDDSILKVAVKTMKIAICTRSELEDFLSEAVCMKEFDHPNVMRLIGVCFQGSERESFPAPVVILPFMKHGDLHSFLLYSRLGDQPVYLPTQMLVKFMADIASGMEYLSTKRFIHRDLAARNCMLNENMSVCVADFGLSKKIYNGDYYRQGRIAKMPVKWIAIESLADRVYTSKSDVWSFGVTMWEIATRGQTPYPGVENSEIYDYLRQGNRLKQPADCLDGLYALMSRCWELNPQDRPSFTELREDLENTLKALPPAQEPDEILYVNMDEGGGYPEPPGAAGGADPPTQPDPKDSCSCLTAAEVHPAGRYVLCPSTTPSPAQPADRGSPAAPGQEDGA
Type: cell-based
Design: especially H1299 cell endogenously expresses Axl; endogenous in cells; host or cells: H1299
In short: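 H1299 cells, seeded overnight, exposed 24 h at 37 °C to 10-point 3-fold compound dilutions, then stimulated with 200 ng/ml human Gas6 (final) for 1 h. Lysates assayed for p-Axl by sandwich ELISA with HRP/TMB, absorbance 450 nm; IC50 by sigmoidal dose-response fit.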

Row | SMILES | IC50
1 | COc1cc2nccc(Oc3ccc(NC(=O)c4nn(C5CC5)cc4OCC(F)(F)F)nc3)c2cc1OC [Compound 5] | < 500 nM
2 | COc1cc2nccc(Oc3ccc(NC(=O)c4nn(C5CCOC5)cc4OCC(F)(F)F)c(F)c3)c2cc1OC (stereo not shown) [Compound 77] | < 500 nM
3 | COc1cc2nccc(Oc3ccc(NC(=O)c4nn(C5CCNC5)cc4OCC(F)(F)F)cc3F)c2cc1OC (stereo not shown) [Compound 78] | < 500 nM
4 | COc1cc2nccc(Oc3ccc(NC(=O)c4nn(CCN)cc4OCC(F)(F)F)cc3F)c2cc1OC [Compound 79] | < 500 nM
5 | COc1cc2nccc(Oc3ccc(NC(=O)c4nn(CC(C)O)cc4OCC(F)(F)F)cc3F)c2cc1OC (stereo not shown) [Compound 80] | < 500 nM
6 | COc1cc2nccc(Oc3ccc(NC(=O)c4nn(C5CCNC5)cc4OCC(F)(F)F)cc3C)c2cc1OC (stereo not shown) [Compound 81] | ≥ 1000 nM
7 | COc1cc2nccc(Oc3ccc(NC(=O)c4nn(CCN)cc4OCC(F)(F)F)cc3C)c2cc1OC [Compound 82] | ≥ 1000 nM
8 | COc1cc2nccc(Oc3ccc(NC(=O)c4nn(CC(C)O)cc4OCC(F)(F)F)cc3C)c2cc1OC (stereo not shown) [Compound 83] | < 500 nM
9 | COCCn1cc(OCC(F)(F)F)c(C(=O)Nc2ccc(Oc3ccnc4cc(OC)c(OC)cc34)c(C)c2)n1 [Compound 84] | < 500 nM
10 | COc1cc2nccc(Oc3ccc(NC(=O)c4nn(C5CCOC5)cc4OCC(F)(F)F)cc3C)c2cc1OC (stereo not shown) [Compound 85] | < 500 nM
11 | COc1cc2nccc(Oc3ccc(NC(=O)c4nn(C5CCNC5)cc4OCC(F)(F)F)cc3)c2cc1OC (stereo not shown) [Compound 86] | < 500 nM
12 | COc1cc2nccc(Oc3ccc(NC(=O)c4nn(CC(C)C)cc4OCC(F)(F)F)cc3)c2cc1OC [Compound 87] | < 500 nM
13 | COc1cc2nccc(Oc3ccc(NC(=O)c4nn(CCN)cc4OCC(F)(F)F)cc3)c2cc1OC [Compound 88] | 500 to 1000 nM
14 | COc1cc2nccc(Oc3ccc(NC(=O)c4nn(CC(C)O)cc4OCC(F)(F)F)cc3)c2cc1OC (stereo not shown) [Compound 89] | < 500 nM
15 | COc1cc2nccc(Oc3ccc(NC(=O)c4nn(C5CCOCC5)cc4OCC(F)(F)F)nc3)c2cc1OC [Compound 90] | < 500 nM
16 | COc1cc2nccc(Oc3ccc(NC(=O)c4nn(C5CCN(C)C5)cc4OCC(F)(F)F)nc3)c2cc1OC (stereo not shown) [Compound 91] | < 500 nM
17 | COc1cc2nccc(Oc3ccc(NC(=O)c4nn(CCC5CCCC5)cc4OCC(F)(F)F)nc3)c2cc1OC [Compound 93] | < 500 nM
18 | COc1cc2nccc(Oc3ccc(NC(=O)c4nn(C5CCN(C)C5)cc4OCC(F)(F)F)c(F)c3)c2cc1OC (stereo not shown) [Compound 94] | < 500 nM
19 | COc1cc2nccc(Oc3ccc(NC(=O)c4nn(CC5COC5)cc4OCC(F)(F)F)c(F)c3)c2cc1OC [Compound 95] | < 500 nM

Reference: patent US12162858B2, “Quinoline derivatives as inhibitors of AXL/MER RTK and CSF1R” (QURIENT CO., LTD., priority 2018, dated 2024)
